Experimental findings from patent US5620864A, “Acceptor for fucosyl transferase” (Health Research, Inc., priority 1992, dated 1997) are described below.

Experiment [1] concerns α1,3-L-fucosyltransferase of the particulate fraction of ovarian tumor. Description: Assay of α1,3-fucosyltransferase with synthetic acceptors, ovarian tumor particulate fraction. In kind it is biochemical, human. The settings on record: for [14C] Fucose Incorporated (CPM): acceptor 3.0 mM, 37° C. 18 h. The protocol: FIG. 2 The scheme for the preparation of the particulate and soluble fractions of human ovarian tumor.
(§1) An incubation mixture contained 50 mM HEPES-NaOH, pH 7.5, 5 mM MnC12, 7 mM ATP, 3 mM NaN3, the acceptor 0.3 mM (for serum enzyme) or 3.0 mM (for tumor enzyme), 0.125 μCi of GDP-[U-^14 C] Fuc (Sp. Act. 216 mCi/mmol) and enzyme in a total volume of 0.10 ml; the control incubation mixture had everything except the acceptor. At the end of incubation at 37° C. for 18 h, the mixture was diluted with 1 ml water and passed through Dowex-1-C1 column (1 ml in a Pasteur pipet). The column was washed twice with 1 ml water; the breakthrough and wash, which contained the [^14 C] fucosylated neutral acceptor, were collected together in a scintillation vial and counted for radioactivity using the scintillation coctail 3a70 (Research Products International, Mount Prospects, Ill.) and Beckman LS9000. The Dowex column was then eluted successively with 3 ml each of 0.1M and 0.2M NaCl; these eluates which contained the [^14 C] fucosylated sulfated acceptors, were counted for radioactivity as before. Corrections were made by subtracting the radioactivity in the water and NaCl eluates of the control incubation mixture from the corresponding test fractions. The duplicate runs of samples gave almost identical values, the difference being <5%.
This finding is quite different from what we found with the soluble fraction, where α1,4-fucosyltransferase activity seems to be greater than α1,3-fucosyltransferase activity. […] The different nature of the above enzymes was made further clear, when sulfated derivatives of LacNAc was tested as acceptors.

In experiment [2] the test system is serum α1,3-L-fucosyltransferase. In words: Acceptor ability in presence of the competitive substrate (3'-sulfo LacNAc vs 2'-methyl LacNAc), ovarian cancer sera. Format: biochemical, human. The settings on record: for Km: serum enzyme. The protocol: as §1
The superiority of 3'-sulfo LacNAc over 2'-methyl LacNAc as the substrate for measuring serum α1,3 fucosyltransferase was tested in three different ways. First, the incubation mixtures in duplicate contained 0.3 mM 3'-sulfo LacNAc and varying amounts of 2'-methyl LacNAc (0 to 7.5 mM); the incorporation of [^14 C] fucose by the serum enzyme into both substrates was measured (Table III). The incorporation of [^14 C] fucose into 3'-sulfo LacNAc decreased and into 2'-methyl LacNAc increased with the increase in the concentration of the latter. […] 25 fold less than 2' methyl LacNAc. Secondly, the incubation mixtures in duplicate contained 3.0 mM 2'-methyl LacNAc and varying amounts of 3'-sulfo LacNAc (0 to 0.75 mM); the incorporation of [^14 C] fucose by the same serum enzyme into both substrates was measured (Table III). The [^14 C] fucose incorporation into 2'-methyl LacNAc decreased and into 3'-sulfo LacNAc increased by increasing the concentration of the latter. […] Thirdly, both 2'-methyl LacNAc and 3'-sulfo LacNAc at 0.3 mM concentration were incubated separately in duplicates with six ovarian cancer sera and one normal serum; the incorporation of [^14 C] fucose into these acceptors were quantitated (Table IV). The [^14 C] fucose incorporation into 3'-sulfo LacNAc was consistently higher (4-5 fold) than that into 2'-methyl LacNAc, including the assay of the normal serum. […] These values indicate that 3'-sulfo LacNAc is a very high affinity acceptor for α1,3 fucosyltransferase. The [^14 C] fucosylated product arising from 3'-sulfo LacNAc has been tentatively identified as 3'-sulfo, 3-fucosyl LacNAc by comparing strictly its mobility on paper with the synthetic authentic compound 3'-sulfo, 3-fucosyl LacNAc (see FIG. 5).

The target of experiment [3] is T1, serum α1,3-L-fucosyltransferase (Homo sapiens, UniProt P51993).
T1 construct: Sera were collected from healthy females and ovarian cancer patients; from tissue; host or cells: blood serum of ovarian cancer patients and healthy females
T1 sequence (P51993 35-359 limits assumed): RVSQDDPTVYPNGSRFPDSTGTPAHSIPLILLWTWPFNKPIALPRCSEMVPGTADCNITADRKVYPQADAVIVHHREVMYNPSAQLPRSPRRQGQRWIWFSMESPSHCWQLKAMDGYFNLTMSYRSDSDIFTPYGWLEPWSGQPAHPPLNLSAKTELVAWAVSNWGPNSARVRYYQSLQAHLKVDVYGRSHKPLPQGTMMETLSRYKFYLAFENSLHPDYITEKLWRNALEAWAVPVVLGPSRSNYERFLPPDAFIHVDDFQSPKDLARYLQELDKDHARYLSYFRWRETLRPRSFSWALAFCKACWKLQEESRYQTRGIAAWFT
Description: Assay of α1,3-fucosyltransferase with various synthetic acceptors, ovarian cancer sera as enzyme source. Format: biochemical. The settings on record: for [14C] Fucose Incorporated (CPM): acceptor 0.3 mM, 37° C. 18 h. How it is done: Sera were collected from healthy females and ovarian cancer patients admitted to Roswell Park Cancer Institute in Buffalo, N.Y., USA. Ovarian tumor tissues were obtained during surgical procedures from patients with ovarian cancer. Both sera and tissues were stored frozen at -70° C. until use.
as §1
The activity of serum α1,3-fucosyltransferase was measured with the specific substrate 2'-methyl LacNAc and compared with the ability of several other synthetic substrates to act as an acceptor of fucose.
When the structure of the acceptor 2'-methyl LacNAc was modified by replacing the methyl group with sulfate group in C-2', 3', 6' or 6 position and tested their ability to act as the acceptor of fucose, the following novel findings emerged. […] The β-benzyl glycoside of 3' sulfo LacNAc was quite active (168.4%) but less than the parent compound.

The mark [4] stands for this setting: 2'-Methyl LacNAc 3.0 mM + 3'-Sulfo LacNAc 0 mM.
Where [5] appears, read: 2'-Methyl LacNAc 3.0 mM + 3'-Sulfo LacNAc 0.15 mM.
[6] abbreviates: 2'-Methyl LacNAc 3.0 mM + 3'-Sulfo LacNAc 0.30 mM.
The mark [7] stands for this setting: 2'-Methyl LacNAc 3.0 mM + 3'-Sulfo LacNAc 0.45 mM.
The mark [8] stands for this setting: 2'-Methyl LacNAc 3.0 mM + 3'-Sulfo LacNAc 0.65 mM.
Setting [9] is: 2'-Methyl LacNAc 3.0 mM + 3'-Sulfo LacNAc 0.75 mM.
The mark [10] stands for this setting: 3'-Sulfo LacNAc 0.3 mM + 2'-Methyl LacNAc 0 mM.
Setting [11] is: 3'-Sulfo LacNAc 0.3 mM + 2'-Methyl LacNAc 1.5 mM.
[12] abbreviates: 3'-Sulfo LacNAc 0.3 mM + 2'-Methyl LacNAc 3.0 mM.
Setting [13] is: 3'-Sulfo LacNAc 0.3 mM + 2'-Methyl LacNAc 4.5 mM.
Setting [14] is: 3'-Sulfo LacNAc 0.3 mM + 2'-Methyl LacNAc 6.0 mM.
[15] abbreviates: 3'-Sulfo LacNAc 0.3 mM + 2'-Methyl LacNAc 7.5 mM.
Where [16] appears, read: 2'-methyl LacNAc = 100, listed as 3'-Sulfo LacNAc.
The mark [17] stands for this setting: 2'-methyl LacNAc = 100, listed as 3'-sulfo LacNAc.

One may read the Km as the substrate concentration at which the rate is half of its maximum. In the case of `CO[C@H]1[C@H](O[C@H]2[C@H](O)[C@@H](NC(C)=O)C(O)O[C@@H]2CO)O[C@H](CO)[C@H](O)[C@@H]1O` (some centres unmarked) [2'-methyl LacNAc], in experiment [1] (2'-methyl LacNAc = 100), the “Relative Percent” value is recorded as 100%. In addition, the figures for the “[14C] Fucose Incorporated (CPM)” value in experiment [1] and in experiment [3] were 48252 CPM and 1730 CPM, respectively. For the same compound, the “Incorporation of [14C] Fucose (CPM)” value was found to be 3664 CPM in experiment [2] (setting [4]); 2581 CPM in experiment [2] (setting [5]); 2191 CPM in experiment [2] (setting [6]); 1737 CPM in experiment [2] (setting [7]); 1184 CPM in experiment [2] (setting [8]); 1187 CPM in experiment [2] (setting [9]). In addition, the “Incorporation of [14C] Fucose (CPM)” value was found to be 157 CPM in experiment [2] (setting [10]); 1143 CPM in experiment [2] (setting [11]); 1614 CPM in experiment [2] (setting [12]); 1973 CPM in experiment [2] (setting [13]); 2698 CPM in experiment [2] (setting [14]); 2788 CPM in experiment [2] (setting [15]). For the same compound, the “inhibition of the [14C] fucose incorporation into 3'-sulfo LacNAc” value in experiment [2] (2'-methyl LacNAc 7.5 mM, 3'-sulfo LacNAc 0.3 mM) was determined as 43%. Moreover, the Km in experiment [2] (2'-methyl LacNAc in presence of 0.3 mM 3'-sulfo LacNAc) is 6.67 mM. Moreover, the “inhibition by 2'-methyl LacNAc of incorporation into 3'-sulfo LacNAc” value in experiment [2] (3'-sulfo LacNAc present at 3.0 mM) is given as “no inhibition”.
On to `CC(=O)N[C@H]1C(O)O[C@H](CO)[C@@H](O[C@@H]2O[C@H](CO)[C@H](O)[C@H](OS(=O)(=O)O)[C@H]2O)[C@@H]1O` (stereo partly drawn) [3'-Sulfo-LacNAc, SODIUM β-D-GALACTOPYRANOSYL 3-SULFATE-(1→4)-2-ACETAMIDO-2-DEOXY-D-GLUCOPYRANOSE], for which the “Relative Percent” value in experiment [1] (2'-methyl LacNAc = 100) came to 39.0%; in experiment [1] (setting [16]), 39%; in experiment [1] (setting [17]), 39.0%; in experiment [3] (2'-methyl LacNAc = 100) it was 340.8%; in experiment [3] (setting [16]) it was 340.8%; in experiment [3] (setting [17]) it was 340.8%. Moreover, in experiment [3] (2'-methyl LacNAc = 100, listed as 3'-sulfo-LacNAc), the “Relative Percent” value was found to be 340%. Further, the “[14C] Fucose Incorporated (CPM)” value was determined as 18793 CPM in experiment [1] and 5894 CPM in experiment [3]. In addition, the “Incorporation of [14C] Fucose (CPM)” value in experiment [2] (setting [4]) is reported as 140 CPM; in experiment [2] (setting [5]), 1294 CPM; in experiment [2] (setting [6]), 2181 CPM; in experiment [2] (setting [7]), 2417 CPM; in experiment [2] (setting [8]) it was 2373 CPM; in experiment [2] (setting [9]), 2560 CPM. Further, the “Incorporation of [14C] Fucose (CPM)” value is on record as 2520 CPM in experiment [2] (setting [10]); 2132 CPM in experiment [2] (setting [11]); 1872 CPM in experiment [2] (setting [12]); 1748 CPM in experiment [2] (setting [13]); 1712 CPM in experiment [2] (setting [14]); 1428 CPM in experiment [2] (setting [15]). Also, the “inhibition of the [14C] fucose incorporation into 2'-methyl LacNAc” value in experiment [2] (3'-Sulfo LacNAc 0.75 mM, 2'-methyl LacNAc 3.0 mM) is given as 68%. In addition, the Km in experiment [2] (3'-sulfo LacNAc in presence of 3.0 mM 2'-methyl LacNAc) was found to be 0.12 mM.
